We go through 18 compounds from ChEMBL document CHEMBL2401647, “High potency improvements to weak aryl uracil HCV polymerase inhibitor leads” (Bioorg Med Chem Lett, 2013).

The nature of data set [1]: Inhibition of Hepatitis C virus genotype 1a NS5B polymerase. Details: species or system Hepatitis C virus subtype 1a.
Data set [2] relates to Hepatitis C virus. Briefly: Antiviral activity against Hepatitis C virus genotype 1a infected in human HuH7 cells. It is filed as functional, organism-based, Hepacivirus hominis. The note with it: subtype 1a, Huh-7.
Data set [3] deals with Hepatitis C virus. Briefly: Inhibition of Hepatitis C virus genotype 1b NS5B polymerase. Also noted: species or system Hepatitis C virus subtype 1b.
Data set [4] has as its system Hepatitis C virus. In words: Antiviral activity against Hepatitis C virus genotype 1b infected in human HuH7 cells. The settings on record: Huh-7. Format: functional, organism-based, Hepacivirus hominis.
Data set [5] in a line: Solubility of the compound. It is filed as physicochemical.
Data set [6] in a line: Permeability of the compound. The settings on record: not told; read-out: permeability. It is filed as ADME.
Data set [7] in a line: Oral bioavailability in rat. Format: ADME, organism-based. The note with it: in vivo.
A short description of data set [8]: Half life in iv dosed rat. It is filed as ADME, organism-based. The settings on record: in vivo.
Data set [9] is described as follows: AUC in rat. It is filed as ADME, organism-based. The settings on record: plasma.
The nature of data set [10]: AUC in po dosed rat. Format: ADME, organism-based. The settings on record: plasma.
Data set [11] can be described thus: Cytotoxicity against human HuH7 cells. It is filed as cell-based. The settings on record: Huh-7 cells, read-out: TD50 (the source's name).

The structures appear in SMILES notation. In brackets after ≈: the same amount, converted by molar mass. Where only a bound is given, the exact number is not on record here.

`CC(C)(C)c1cc(N2CCC(=O)NC2=O)cc(C(=O)NCc2ccccc2)c1O`: the values for the IC50 (in [1]; with Hepatitis C virus [3]) were 8.59 µM and 0.94 µM, respectively. Also, the EC50 stood at 14.2 µM in the data set with Hepatitis C virus [2] and 15.3 µM in the data set on Hepatitis C virus [4].
For `CC(C)(C)c1cc(N2CCC(=O)NC2=O)cc(C(=O)Nc2ccccc2)c1O`, in that order: 4.28 µM, 0.23 µM, 18.6 µM and 6.31 µM.
Consider `COc1c(C(=O)Nc2ccc(NS(C)(=O)=O)cc2)cc(-n2ccc(=O)[nH]c2=O)cc1C(C)(C)C`, for which the concentration in solution in data set [5] (solubility) came to 13 µM (≈ 6.33 µg/mL). For the same compound, the IC50 in data set [1] turned out to be 0.02 µM; in the data set with Hepatitis C virus [3] it was 0.03 µM. Besides, the figures for the EC50 with Hepatitis C virus [2] and in the data set with Hepatitis C virus [4] were 0.27 µM and 0.05 µM, respectively. Further, in data set [6], the Papp worked out at 0.2 ×10⁻⁶ cm/s.
For the compound `CC(C)(C)c1cc(N2CCC(=O)NC2=O)cc(C(=O)Nc2ccc(NS(C)(=O)=O)cc2)c1O`, the IC50 in data set [1] was 0.02 µM; with Hepatitis C virus [3], 0.002 µM. Also, the EC50 worked out at 0.39 µM in the data set with Hepatitis C virus [2] and 0.05 µM with Hepatitis C virus [4].
In the case of `COc1c(C(=O)Nc2ccc(NS(C)(=O)=O)cc2)cc(N2CCC(=O)NC2=O)cc1C(C)(C)C`, the solubility in [5] was determined as 2 µM (≈ 0.977 µg/mL). For the same compound, the IC50 in [1] worked out at 0.01 µM; with Hepatitis C virus [3] it was 0.02 µM. Further, the values for the EC50 with Hepatitis C virus [2] and in the data set with Hepatitis C virus [4] were 0.06 µM and 0.02 µM, respectively. The bioavailability in data set [7] is 1.5%. Further, the Papp in data set [6] was found to be 0.5 ×10⁻⁶ cm/s. Besides, in [8], the half-life was 66 min. Also, the figures for the AUC in data set [9] and in data set [10] were 3380 ng·h/mL and 50 ng·h/mL, respectively.
On to `CC(C)(C)c1cc(N2CCC(=O)NC2=O)cc(C(=O)Nc2ccc(OS(C)(=O)=O)cc2)c1O`, for which the IC50 in data set [1] was 0.18 µM; with Hepatitis C virus [3], 0.03 µM. Moreover, the EC50 in the data set with Hepatitis C virus [2] is 4.65 µM; with Hepatitis C virus [4] it was 1.13 µM. In addition, the CC50 in data set [11] is over 50 µM.
In the case of `COc1c(C(=O)Nc2ccc(N)cc2)cc(N2CCC(=O)NC2=O)cc1C(C)(C)C`, the IC50 stood at 2.06 µM in data set [1] and 1.24 µM in the data set on Hepatitis C virus [3]. For the same compound, the EC50 in the data set on Hepatitis C virus [2] was over 50 µM; in the data set with Hepatitis C virus [4], 4.24 µM.
For the compound `COc1ccc(N2CCC(=O)NC2=O)cc1C(C)(C)C`, the solubility in [5] worked out at 73 µM (≈ 20.2 µg/mL). Further, in data set [1], the IC50 was determined as 26 µM. The EC50 with Hepatitis C virus [2] and with Hepatitis C virus [4] was over 100 µM each time. The same compound came in with a bioavailability in [7] of 45%. In [6], the Papp came to 5.5 ×10⁻⁶ cm/s. In data set [8], this compound gave a half-life of 228 min. The AUC in data set [9] turned out to be 12400 ng·h/mL; in data set [10] it was 5570 ng·h/mL.
Regarding `COc1c(C(=O)Nc2ccc(OS(C)(=O)=O)cc2)cc(N2CCC(=O)NC2=O)cc1C(C)(C)C`, the IC50 in data set [1] was 0.67 µM; in the data set with Hepatitis C virus [3], 1.04 µM. In addition, the figures for the EC50 with Hepatitis C virus [2] and with Hepatitis C virus [4] were 3.4 µM and 0.86 µM, respectively. In addition, the CC50 in data set [11] is over 50 µM.
`COc1c(C(=O)Nc2ccc(N(C)S(C)(=O)=O)cc2)cc(N2CCC(=O)NC2=O)cc1C(C)(C)C`: the results for the IC50 (in data set [1]; in the data set on Hepatitis C virus [3]) were 0.77 µM and 0.83 µM, respectively. In addition, the EC50 in the data set on Hepatitis C virus [2] was 5.49 µM; with Hepatitis C virus [4], 0.56 µM. Besides, the CC50 in data set [11] was over 50 µM.
For `COc1c(C(=O)Nc2ccc(NS(=O)(=O)CCN3CCOCC3)cc2)cc(N2CCC(=O)NC2=O)cc1C(C)(C)C`, the solubility in data set [5] worked out at 74 µM (≈ 43.5 µg/mL). Further, the IC50 in [1] was 0.11 µM; in the data set on Hepatitis C virus [3], 0.31 µM. For the same compound, the concentration for a half-maximal effect (EC50) was determined as 5.31 µM in the data set on Hepatitis C virus [2] and 0.58 µM in the data set with Hepatitis C virus [4]. Also, the bioavailability in data set [7] is 0%. For the same compound, the Papp in data set [6] was determined as 0.1 ×10⁻⁶ cm/s. The half-life in data set [8] is 36 min. This compound also displayed an AUC in data set [9] of 2540 ng·h/mL.
Take `CC(C)(C)c1cc(-n2ccc(=O)[nH]c2=O)cc(C(=O)Nc2ccc(NS(C)(=O)=O)cc2)c1O`: the figures for the IC50 (in data set [1]; with Hepatitis C virus [3]) were 0.038 µM and 0.01 µM, respectively. Further, the EC50 in the data set on Hepatitis C virus [2] was 0.59 µM; in the data set with Hepatitis C virus [4], 0.094 µM.
Turning to `CC(C)(C)c1cc(N2CCC(=O)NC2=O)cc(C(=O)Nc2ccc(NS(=O)(=O)CCN3CCOCC3)cc2)c1O`, the IC50 in [1] worked out at 0.05 µM; in the data set with Hepatitis C virus [3], 0.007 µM. The results for the EC50 in the data set on Hepatitis C virus [2] and in the data set with Hepatitis C virus [4] were 1.96 µM and 0.42 µM, respectively.
As for `CC(C)(C)c1cc(N2CCC(=O)NC2=O)cc(C(=O)Nc2cccc(NS(C)(=O)=O)c2)c1O`, the IC50 in [1] came to 0.36 µM; in the data set with Hepatitis C virus [3], 0.05 µM. The EC50 in the data set with Hepatitis C virus [2] came out at 27.8 µM; in the data set on Hepatitis C virus [4] it was 7.56 µM. Moreover, the CC50 in data set [11] is over 50 µM.
In the case of `COc1c(C(=O)Nc2ccc(NC(C)=O)cc2)cc(N2CCC(=O)NC2=O)cc1C(C)(C)C`, the figures for the IC50 (in data set [1]; with Hepatitis C virus [3]) were 3.42 µM and 5.12 µM, respectively.
On to `CN(c1ccc(NC(=O)c2cc(N3CCC(=O)NC3=O)cc(C(C)(C)C)c2O)cc1)S(C)(=O)=O`, for which the IC50 came to 0.46 µM in data set [1] and 0.03 µM with Hepatitis C virus [3]. The EC50 in the data set with Hepatitis C virus [2] was 3.55 µM; in the data set on Hepatitis C virus [4], 1.04 µM. Also, the CC50 in data set [11] was over 50 µM.
Turning to `CC(C)(C)c1cc(N2CCC(=O)NC2=O)ccc1O`, the results for the IC50 (in [1]; in the data set on Hepatitis C virus [3]) were 71 µM and 23 µM, respectively. Also, the EC50 with Hepatitis C virus [2] and with Hepatitis C virus [4] was over 100 µM throughout.
`COc1c(C(=O)Nc2ccccc2)cc(N2CCC(=O)NC2=O)cc1C(C)(C)C`: in data set [5], the concentration in solution (solubility) came to 12 µM (≈ 4.75 µg/mL). Further, the figures for the IC50 (in data set [1]; with Hepatitis C virus [3]) were 0.89 µM and 0.75 µM, respectively. Besides, the figures for the EC50 in the data set with Hepatitis C virus [2] and in the data set on Hepatitis C virus [4] were 3.67 µM and 1.03 µM, respectively. Besides, in data set [7], the bioavailability came to 15%. For the same compound, the Papp in data set [6] turned out to be 1.4 ×10⁻⁶ cm/s. The half-life in data set [8] is 30 min. Besides, the results for the AUC in data set [9] and in [10] were 2190 ng·h/mL and 330 ng·h/mL, respectively.
